Test results reported in US20250326988A1, “SELF-PRESERVED, MILD LIQUID LAUNDRY DETERGENT FORMULAS” (Henkel AG & Co. KGaA, priority 2024, published 2025).

Tested on: Fungi
Experiment: Micro challenge, fungi reduction
Assay type: cell-based
Settings: for Estimated Regression Coefficients for 7 Day: Coefficient / Estimated Regression Coefficients for 14 Day: Coefficient / Estimated Regression Coefficients for 21 Day: Coefficient / Estimated Regression Coefficients for 28 Day: Coefficient: Minitab regression of fungi log reductions; for efficacy of ingredient for log reduction as indicated by estimated regression coefficients: ethanol at day 7, sodium chloride afterwards
Experimental: Micro challenges were performed on Formulations 61J-L, 62A-M, […] and […] prepared in Example 1 for log reduction rates of bacteria and fungi. Bacteria were double challenged (inoculated about 1E08 to 1E09 CFU/g) and Fungi was single challenged (inoculated about 1E8 to 5E8). A. brasillienis (mold), S. aureus, E. coli, P. gergoviae/[…] mixture, P. aeruginosa, C. albicans (yeast), H. venusta were tested. Pass criteria for bacterium was greater than 3 log reduction on day 7 and 4 logs on day 28. Pass criteria for fungi was greater than 1 log reduction at 14 days with no growth observed afterwards.

Row | Structure (SMILES) | Estimated Regression Coefficients for 7 Day: Coefficient | Estimated Regression Coefficients for 14 Day: Coefficient | Estimated Regression Coefficients for 21 Day: Coefficient | Estimated Regression Coefficients for 28 Day: Coefficient | efficacy of ingredient for log reduction as indicated by estimated regression coefficients
1 | CCO [Ethanol] | 2.24 | 3.08 | 3.22 | 3.09 | most effective log reduction
2 | CC(C(=O)O)N(CC(=O)O)CC(=O)O (centres unmarked) [MGDA, methylglycinediacetic acid] | 1.16 | 1.42 | 1.43 | 1.42 | 
3 | [Cl-].[Na+] [NaCl, sodium chloride] | 1.36 | 2.14 | 3.13 | 3.42 | comparable to ethanol's efficacy
